The record followed here is paper PMC3726482 (PLoS ONE, 2013).

The structures appear in SMILES notation.

Common to all, as to assay type: biochemical
For assay [1], the target named is T1, CyaA-N (Bordetella pertussis, UniProt P0DKX7).
T1 construct: gene cya; catalytic domain, amino acids 1 to 373; plasmid pExCyaA-N; purified from E. coli; assayed with calf brain calmodulin; with Calmodulin
Particulars: read-out: CyaA-N / KM.

The target of the next assay is T2, EF (edema factor) (Bacillus anthracis, UniProt P40136).
T2 construct: gene cya
Particulars: read-out: EF / KM.

Assay [2] addresses T1, CyaA-N.

T1 sequence (P0DKX7 whole entry, looked up, the tested form may be a part): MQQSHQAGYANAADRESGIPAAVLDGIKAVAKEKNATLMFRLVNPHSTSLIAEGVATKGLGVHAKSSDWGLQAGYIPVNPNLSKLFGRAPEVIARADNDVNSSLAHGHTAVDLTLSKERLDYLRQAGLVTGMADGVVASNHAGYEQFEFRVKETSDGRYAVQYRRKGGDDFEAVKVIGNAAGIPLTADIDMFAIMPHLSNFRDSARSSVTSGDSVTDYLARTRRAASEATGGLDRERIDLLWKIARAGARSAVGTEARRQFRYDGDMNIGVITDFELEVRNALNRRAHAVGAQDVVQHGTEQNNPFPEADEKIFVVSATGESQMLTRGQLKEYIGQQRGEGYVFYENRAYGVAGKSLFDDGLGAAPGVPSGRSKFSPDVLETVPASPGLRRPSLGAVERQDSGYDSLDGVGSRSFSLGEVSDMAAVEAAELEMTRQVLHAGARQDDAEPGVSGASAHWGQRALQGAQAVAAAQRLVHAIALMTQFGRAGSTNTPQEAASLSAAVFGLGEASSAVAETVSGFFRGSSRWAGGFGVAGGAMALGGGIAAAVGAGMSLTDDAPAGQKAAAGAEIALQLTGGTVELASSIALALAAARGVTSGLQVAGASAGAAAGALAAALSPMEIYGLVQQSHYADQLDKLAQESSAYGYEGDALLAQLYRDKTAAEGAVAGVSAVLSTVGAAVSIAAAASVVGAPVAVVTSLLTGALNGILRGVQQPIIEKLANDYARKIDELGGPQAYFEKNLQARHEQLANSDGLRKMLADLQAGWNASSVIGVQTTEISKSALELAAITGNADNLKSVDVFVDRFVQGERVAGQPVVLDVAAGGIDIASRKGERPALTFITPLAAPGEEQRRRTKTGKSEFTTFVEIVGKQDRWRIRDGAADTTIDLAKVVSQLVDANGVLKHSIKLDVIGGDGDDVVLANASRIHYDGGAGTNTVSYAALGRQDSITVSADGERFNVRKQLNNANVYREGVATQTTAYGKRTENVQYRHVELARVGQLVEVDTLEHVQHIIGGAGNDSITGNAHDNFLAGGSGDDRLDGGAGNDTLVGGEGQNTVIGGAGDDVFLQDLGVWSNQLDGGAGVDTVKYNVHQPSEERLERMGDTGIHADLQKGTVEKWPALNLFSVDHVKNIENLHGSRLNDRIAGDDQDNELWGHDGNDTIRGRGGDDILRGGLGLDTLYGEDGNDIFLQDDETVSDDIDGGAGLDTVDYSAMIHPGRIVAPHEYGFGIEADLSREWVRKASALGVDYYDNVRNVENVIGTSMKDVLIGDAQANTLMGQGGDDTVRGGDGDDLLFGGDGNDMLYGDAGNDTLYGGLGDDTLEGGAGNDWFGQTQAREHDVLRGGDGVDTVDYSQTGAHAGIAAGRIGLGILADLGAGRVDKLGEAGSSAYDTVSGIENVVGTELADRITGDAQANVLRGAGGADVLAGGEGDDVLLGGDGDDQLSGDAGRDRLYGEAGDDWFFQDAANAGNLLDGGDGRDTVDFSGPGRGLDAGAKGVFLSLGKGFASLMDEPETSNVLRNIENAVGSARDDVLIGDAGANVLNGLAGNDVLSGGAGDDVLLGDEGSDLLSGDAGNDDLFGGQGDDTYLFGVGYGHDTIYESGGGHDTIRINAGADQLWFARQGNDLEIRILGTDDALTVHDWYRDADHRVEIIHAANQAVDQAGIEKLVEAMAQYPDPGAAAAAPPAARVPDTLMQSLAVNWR
T2 sequence (P40136 whole entry, looked up): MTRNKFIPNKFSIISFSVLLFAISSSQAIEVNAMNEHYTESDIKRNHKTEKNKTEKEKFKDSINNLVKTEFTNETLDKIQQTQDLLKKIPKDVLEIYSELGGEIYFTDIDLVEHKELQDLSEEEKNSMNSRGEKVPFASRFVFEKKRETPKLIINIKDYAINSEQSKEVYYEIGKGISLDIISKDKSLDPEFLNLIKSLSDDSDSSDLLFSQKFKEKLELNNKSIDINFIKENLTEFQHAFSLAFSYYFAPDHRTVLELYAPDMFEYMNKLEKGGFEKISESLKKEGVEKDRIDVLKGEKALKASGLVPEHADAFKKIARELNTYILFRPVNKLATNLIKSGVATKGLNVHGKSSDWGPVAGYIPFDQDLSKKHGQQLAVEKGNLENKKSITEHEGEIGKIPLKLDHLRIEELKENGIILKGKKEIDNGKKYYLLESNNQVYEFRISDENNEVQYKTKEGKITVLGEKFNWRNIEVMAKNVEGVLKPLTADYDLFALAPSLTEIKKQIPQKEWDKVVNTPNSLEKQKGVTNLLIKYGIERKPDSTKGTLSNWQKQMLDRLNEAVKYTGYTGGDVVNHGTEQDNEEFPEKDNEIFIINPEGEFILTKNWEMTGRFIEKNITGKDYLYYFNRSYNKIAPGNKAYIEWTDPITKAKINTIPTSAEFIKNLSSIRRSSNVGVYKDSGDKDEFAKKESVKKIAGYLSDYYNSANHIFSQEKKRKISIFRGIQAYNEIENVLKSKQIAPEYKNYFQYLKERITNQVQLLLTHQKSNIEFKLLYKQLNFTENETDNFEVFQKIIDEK

For `Nc1ncnc2c1ncn2[C@@H]1O[C@H](COP(=O)(O)OP(=O)(O)OP(=O)(O)O)[C@@H](O)[C@H]1O` [ATP], the Km came to 171 ± 22.8 µM on CyaA-N [1] and 78.1 ± 8.7 µM on EF (edema factor).
The corresponding values for `Nc1ccn([C@@H]2O[C@H](COP(=O)(O)OP(=O)(O)OP(=O)(O)O)[C@@H](O)[C@H]2O)c(=O)n1` [CTP] are 475 ± 139 µM and 367 ± 116 µM.
Taken in the same sequence, the figures for `Nc1nc2c(ncn2[C@@H]2O[C@H](COP(=O)(O)OP(=O)(O)OP(=O)(O)O)[C@@H](O)[C@H]2O)c(=O)[nH]1` [GTP] were 191 ± 25 µM and 85 ± 13 µM.
The corresponding values for `O=P(O)(O)OP(=O)(O)OP(=O)(O)OC[C@H]1O[C@@H](n2cnc3c(O)ncnc32)[C@H](O)[C@@H]1O` [ITP] are 329 ± 44 µM and 507 ± 108 µM.
On to `Cc1cn([C@H]2C[C@H](O)[C@@H](COP(=O)(O)OP(=O)(O)OP(=O)(O)O)O2)c(=O)[nH]c1=O` [TTP], for which, at CyaA-N [1], the Km worked out at 19 ± 5 µM. For the same compound, the “CyaA-N / KM” value at CyaA-N [2] came out at 1332 ± 365 µM.
Regarding `O=c1ccn([C@@H]2O[C@H](COP(=O)(O)OP(=O)(O)OP(=O)(O)O)[C@@H](O)[C@H]2O)c(=O)[nH]1` [UTP], the figures for the Km on CyaA-N [1] and at EF (edema factor) were 599 ± 59 µM and 792 ± 299 µM, respectively.
As to `O=c1[nH]c(=O)c2ncn([C@@H]3O[C@H](COP(=O)(O)OP(=O)(O)OP(=O)(O)O)[C@@H](O)[C@H]3O)c2[nH]1` [XTP], the Km on CyaA-N [1] came out at 37 ± 7 µM. Also, the “CyaA-N / KM” value on CyaA-N [2] was 309 ± 57 µM.
